According to PMC8944748, “Kojic Acid Showed Consistent Inhibitory Activity on Tyrosinase from Mushroom and in Cultured B16F10 Cells Compared with Arbutins” (Antioxidants, 2022):
Entries after “also recorded” stand apart in the source; their conditions may differ.

How the values were obtained:
[1] = molecular target: diphenolase of mushroom tyrosinase (MTYR); test: Kinetic analysis of MTYR diphenolase (Lineweaver-Burk plot); type: biochemical
Experimental: (§1) The concentration of enzyme was fixed, while the concentration of substrate was changed. […] When determining inhibition type of monophenolase, the concentration of kojic acid were 7.5, 30, and 120 µM. […] The concentrations of deoxyarbutin were 3.75, 15, and 60 µM. […] The concentrations of deoxyarbutin were 7.5, 30, and 120 µM. Once the substrate was added to the reaction system, the formation of dopachrome was immediately detected at 475 nm once every minute for 30 min. Steady state rate (V0) was defined as the slope of the linear range of progress curves, also called the dopachrome accumulation curve. The Km (substrate concentration that yield a half-maximal velocity) and Vmax (maximum velocity) of tyrosinase were determined by Michaelis–Menten equation. Lineweaver–Burk plot was used to display the data.

[2] = system: diphenolase of mushroom tyrosinase (MTYR); test: MTYR diphenolase activity assay (L-DOPA as substrate, dopachrome at 475 nm); type: biochemical; conditions: L-DOPA
Experimental: L-tyrosine and L-DOPA were used as the substrates to test the monophenolase activity and diphenolase activity, respectively. Freshly prepared tyrosinase and substrate solutions were used in this experiment. For air-saturated solutions, a temperature of 25 °C and pH of 6.8 was maintained throughout the study. All assays were performed in triplicate. […] Additionally, three concentrations of every compound were selected to present progress curves. Once the substrate was added in reaction system, the formation of dopachrome was immediately measured at 475 nm for 25 min at 1 min intervals.

B16F10 cells = test: Cellular melanin content of B16F10 cells stimulated by α-MSH; type: cell-based, mouse; conditions: 48 h, percentage of control 2
Experimental: (§2) Measurement of B16F10 cellular tyrosinase (BTYR) activity, melanin content, and cell viability were the same as our previous study. Blank group (control 1) was the treatment containing cells and medium. Control group (control 2) was the treatment containing cells, medium, and α-MSH. Compound groups were the treatments containing cells, medium, α-MSH, and related compounds. Experiments were performed at least in triplicate.
(§3) B16F10 mouse malignant melanoma cell line from Stem Cell Bank (Chinese Academy of Sciences, Shanghai, China) were cultured in DMEM supplemented with 10% fetal bovine serum (FBS; Gibco, Grand Island, NV, USA) and antibiotics (100 U/mL penicillin and 100μg/mL streptomycin) in a humidified atmosphere of 5% CO2 at 37 °C. B16F10 cells at the exponential phase were adjusted for cell density and used in the following assay.
Briefly, B16F10 cells were treated with compounds as in Section 2.4.2. After being washed with PBS and dissolved in 1 M NaOH containing 10% DMSO for 1 h at 80 °C, the cell lysates were centrifuged at 12,000 rpm for 10 min. 150 μL of supernatant was transferred to 96-well plates and the absorbance was measured at 405 nm. The melanin content is expressed as a percentage of the control.

[3] = system: diphenolase activity of MTYR; set-up: method as in PMID 7765966; conditions: α-arbutin below 10 mM; cited from earlier work
[4] = system: T1, B16F10 cellular tyrosinase (BTYR); test: B16F10 cellular tyrosinase (BTYR) activity, L-DOPA oxidase activity of lysate after treatment of cells; type: cell-based, mouse; conditions: 48 h, percentage of control 2
T1 construct: The supernatant was used as the BTYR solution; endogenous in cells; host or cells: B16F10 mouse melanoma cells, α-MSH stimulated
Experimental: as §2, §3
The BTYR activity was measured as the L-DOPA oxidase activity. B16F10 cells were seeded and incubated for 24 h in 24-well cell culture plates. Then, they were treated with 50 µL of 1 µM α-MSH and different molarities of compounds for another 48 h. After being washed twice with cold D-PBS and lysed with a lysis buffer (P0013J) containing 1% Triton X-100 for 30 min at −20 °C, the lysates were centrifuged at 12,000 rpm for 10 min at 4 °C. The supernatant was used as the BTYR solution. The reaction mixture, containing 50 μL of cell lysate supernatant and 50 μL of 5 mM L-DOPA, was incubated at 37 °C for 1 h and the level of dopachrome formation was measured spectrophotometrically at 475 nm. Lysis buffer was used as the control. The BTYR activity was calculated as a percentage of the control.

MTYR monophenolase = molecular target: MTYR monophenolase; set-up: method as in PMID 28493937; conditions: read-out: IC50 on the inhibitory activity of MTYR monophenolase; cited from earlier work
[5] = system: tyrosinase diphenolase from B16 mouse melanoma cells; set-up: method as in PMID 7765966; conditions: cited from earlier work
[6] = system: monophenolase of mushroom tyrosinase (MTYR); test: MTYR monophenolase activity assay (L-tyrosine as substrate, dopachrome at 475 nm); type: biochemical
Experimental: L-tyrosine and L-DOPA were used as the substrates to test the monophenolase activity and diphenolase activity, respectively. Freshly prepared tyrosinase and substrate solutions were used in this experiment. For air-saturated solutions, a temperature of 25 °C and pH of 6.8 was maintained throughout the study. All assays were performed in triplicate. In flat-bottom 96-well plates, the reaction media was 200 μL. […] Once the substrate was added in reaction system, the formation of dopachrome was immediately measured at 475 nm for 30 min at 1 min intervals. The concentrations of kojic acid were 7.5, 15, 30, 60, and 120 μM. The concentrations of α-arbutin were 480, 960, 2000, 4000, and 8000 μM. The concentrations of β-arbutin were 240, 480, 960, 2000, and 4000 μM. […] These concentrations were used to determine the progress curves and inhibition rates of monophenolase. […] In the formula, 'negative control' is the treatment without sample; 'blank control' is the treatment without sample and substrate; 'sample' is the treatment including all solutions; and 'sample control' is the treatment without substrate but including sample. If the inhibition rate was negative, it meant the tyrosinase was activated. The activation rate was the absolute value of inhibition rate.

[7] = molecular target: monophenolase of mushroom tyrosinase (MTYR); test: Kinetic analysis of MTYR monophenolase (Lineweaver-Burk plot); type: biochemical
Experimental: as §1

[8] = system: three-dimensional human skin model; set-up: method as in PMID 15056856; conditions: cited from earlier work
[9] = Cell viability of B16F10 cells, CCK-8 assay; type: cell-based, mouse; conditions: mouse, B16F10 melanoma cells, percentage of the control
Experimental: Blank group (control 1) was the treatment containing cells and medium. […] Compound groups were the treatments containing cells, medium, α-MSH, and related compounds. Experiments were performed at least in triplicate. […] B16F10 cells at the exponential phase were adjusted for cell density and used in the following assay. […] Cells were seeded into 96-well plates at a density of 1 × 10^4 cells/well and incubated for 24 h. Then, the cells were treated with different concentrations of compounds for 48 h. After rinsing once with D-PBS, 100 uL DMEM containing 10% CCK-8 was added and incubated for another 1 h. The absorbance values of the solution at 450 nm were measured. The cell viability is expressed as a percentage of the control.

[10] = change with increasing compound molarity

Q: What does the source list for `OC[C@H]1O[C@H](Oc2ccc(O)cc2)[C@H](O)[C@@H](O)[C@@H]1O` [α-arbutin]?
A: Kinetic analysis on diphenolase Inhibition type ([1]; Lineweaver-Burk plot): uncompetitive activator; Kinetic analysis on diphenolase Km [1, 10]: increased; Kinetic analysis on diphenolase Vmax [1, 10]: increased; effect on diphenolase activity of MTYR ([2]; 30-8000 µM): prompted tyrosinase activity in a dose-dependent manner; lag time on diphenolase activity ([2]; progress curves): no lag time; melanin content of B16F10 cells stimulated by α-MSH (B16F10 cells; 43.8 µM): 95 ± 11%; melanin content of B16F10 cells stimulated by α-MSH (B16F10 cells; 87.5 µM): 91 ± 5%; melanin content of B16F10 cells stimulated by α-MSH (B16F10 cells; 175 µM): 92 ± 3%; melanin content of B16F10 cells stimulated by α-MSH (B16F10 cells; 350 µM): 87 ± 5%; melanin content of B16F10 cells stimulated by α-MSH (B16F10 cells; 700 µM): 81 ± 3%; effect on diphenolase activity of MTYR [3]: did not inhibit; also recorded: does not inhibit; tyrosinase activity of B16F10 cells stimulated by α-MSH ([4]; 43.8 µM): 91 ± 4%; tyrosinase activity of B16F10 cells stimulated by α-MSH ([4]; 87.5 µM): 88 ± 4%; tyrosinase activity of B16F10 cells stimulated by α-MSH ([4]; 175 µM): 90 ± 5%; tyrosinase activity of B16F10 cells stimulated by α-MSH ([4]; 350 µM): 93 ± 5%; tyrosinase activity of B16F10 cells stimulated by α-MSH ([4]; 700 µM): 86 ± 5%; IC50 (MTYR monophenolase): 8 mM; potency relative to β-arbutin as inhibitor of tyrosinase from B16 mouse melanoma [5]: 10 times; lag time for monophenolase activity ([6]; L-tyrosine, progress curves): extended in a molarity-dependent manner; IC50 ([6]; substrate L-tyrosine 2 mM, MTYR 300 U/mL, 25 °C, pH 6.8): 6.5 ± 0.137 mM; Kinetic analysis on monophenolase Inhibition type ([7]; Lineweaver-Burk plot): competitive inhibitor; Kinetic analysis on monophenolase Km [7, 10]: increased; Kinetic analysis on monophenolase Vmax [7, 10]: remained constant; inhibition of melanin synthesis [8]: 60%; viability at 48 h, 43.8 µM ([9]; 43.8 µM): 108 ± 5%; viability at 48 h, 87.5 µM ([9]; 87.5 µM): 113 ± 7%; viability at 48 h, 175 µM ([9]; 175 µM): 118 ± 8%; viability at 48 h, 350 µM ([9]; 350 µM): 127 ± 10%; viability at 48 h, 700 µM ([9]; 700 µM): 145 ± 14%
